Measured values from patent publication US8461328B2, “Tricyclic heterocyclic compounds, compositions and methods of use thereof” (Genentech, Inc., priority 2010, dated 2013).
pKi: −log10 of the molar value.

How the values were obtained:
Type in all cases: biochemical
[1] = molecular target: T1, TYK2 (Homo sapiens, UniProt P29597); test: TYK2 inhibition (Table 4)
T1 construct: made in house; host or cells: SF9 insect cells (baculovirus)
T1 sequence (P29597 873-1187): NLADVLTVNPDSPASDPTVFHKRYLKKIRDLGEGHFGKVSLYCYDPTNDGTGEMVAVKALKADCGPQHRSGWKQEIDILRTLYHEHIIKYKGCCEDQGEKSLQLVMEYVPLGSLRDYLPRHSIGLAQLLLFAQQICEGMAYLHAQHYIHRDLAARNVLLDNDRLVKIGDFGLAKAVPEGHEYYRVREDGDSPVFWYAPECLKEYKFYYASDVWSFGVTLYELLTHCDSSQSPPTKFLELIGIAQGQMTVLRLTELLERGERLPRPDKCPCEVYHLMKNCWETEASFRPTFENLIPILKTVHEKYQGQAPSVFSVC

[2] = molecular target: T2, JAK3 (Homo sapiens, UniProt P52333); test: JAK3 inhibition (Table 4); conditions: read-out: JAK3 Ki
T2 construct: made in house; host or cells: SF9 insect cells (baculovirus)
T2 sequence (P52333 783-1124): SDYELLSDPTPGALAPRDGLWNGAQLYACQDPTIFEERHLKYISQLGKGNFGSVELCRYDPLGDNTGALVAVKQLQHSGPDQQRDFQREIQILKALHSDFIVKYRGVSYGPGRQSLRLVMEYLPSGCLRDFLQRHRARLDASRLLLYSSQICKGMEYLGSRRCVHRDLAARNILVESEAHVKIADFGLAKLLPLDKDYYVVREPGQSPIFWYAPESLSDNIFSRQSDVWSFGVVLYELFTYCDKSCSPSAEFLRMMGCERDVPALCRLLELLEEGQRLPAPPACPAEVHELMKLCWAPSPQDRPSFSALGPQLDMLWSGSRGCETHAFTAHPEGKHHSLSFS

[3] = molecular target: T3, JAK1 (Homo sapiens, UniProt P23458); test: JAK1 inhibition (Table 4); conditions: read-out: JAK1 Ki
T3 construct: made in house; host or cells: SF9 insect cells (baculovirus)
T3 sequence (P23458 852-1154): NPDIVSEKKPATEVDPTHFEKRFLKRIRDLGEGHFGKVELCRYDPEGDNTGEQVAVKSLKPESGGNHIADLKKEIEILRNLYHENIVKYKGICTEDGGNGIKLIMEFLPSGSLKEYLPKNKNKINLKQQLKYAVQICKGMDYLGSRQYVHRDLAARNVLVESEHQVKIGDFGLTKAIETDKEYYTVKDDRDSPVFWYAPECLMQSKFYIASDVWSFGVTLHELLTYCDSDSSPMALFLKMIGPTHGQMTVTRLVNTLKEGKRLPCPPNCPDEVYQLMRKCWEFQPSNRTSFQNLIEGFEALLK

[4] = molecular target: T4, JAK2 (Homo sapiens, UniProt O60674); test: JAK2 inhibition (Table 4); conditions: read-out: JAK2 Ki
T4 construct: made in house; host or cells: SF9 insect cells (baculovirus)
T4 sequence (O60674 812-1132): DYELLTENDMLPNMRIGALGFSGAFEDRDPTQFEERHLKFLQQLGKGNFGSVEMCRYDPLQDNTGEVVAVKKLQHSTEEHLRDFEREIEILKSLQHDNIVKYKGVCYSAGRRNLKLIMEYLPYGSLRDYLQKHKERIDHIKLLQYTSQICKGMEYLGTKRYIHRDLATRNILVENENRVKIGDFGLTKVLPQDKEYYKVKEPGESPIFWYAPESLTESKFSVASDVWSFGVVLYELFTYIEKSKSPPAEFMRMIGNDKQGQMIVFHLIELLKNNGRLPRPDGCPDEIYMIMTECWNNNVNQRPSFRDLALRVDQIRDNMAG

Structure (SMILES) | pKi [1] | pKi [2] | pKi [3] | pKi [4]
OC1CCN(Cc2nc3cnc4[nH]ccc4c3n2C2CCN(CC(F)F)CC2)CC1 [Example 705, 1-{1-[1-(2,2-Difluoro-ethyl)-piperidin-4-yl]-1,6-dihydro-1,2,3,5,6-tetraaza-as-indacen-2-ylmethyl}-piperidin-4-ol] | 6.18 | 6.51 | 7.31 | 6.47
CCn1cc(CN2CCC(n3c([C@@H](C)O)nc4cnc5[nH]ccc5c43)CC2)cn1 [Example 822, (R)-1-{1-[1-(1-Ethyl-1H-pyrazol-4-ylmethyl)-piperidin-4-yl]-1,6-dihydro-1,3,5,6-tetraaza-as-indacen-2-yl}-ethanol] | 5.55 | 6.51 | 7.74 | 6.05
O=C(CN1CCC[C@@H](n2cnc3cnc4[nH]ccc4c32)C1)c1ccccc1 [Example 225, 1-Phenyl-2-[(R)-3-(6H-1,3,5,6-tetraaza-as-indacen-1-yl)-piperidin-1-yl]-ethanone] | 6.09 | 6.93 | 7.23 | 6.90
CC(C)(C)OC(=O)N1CCC[C@H](CN[C@H]2CC[C@H](n3cnc4cnc5[nH]ccc5c43)CC2)C1 [Example 565, trans (R)-3-{[4-(6H-1,3,5,6-Tetraaza-as-indacen-1-yl)-cyclohexylamino]-methyl}-piperidine-1-carboxylic acid tert-butyl ester] | 5.71 | 5.98 | 7.04 | 6.40
CS(=O)(=O)N1[C@@H]2CC[C@H]1C[C@H](n1cnc3cnc4[nH]ccc4c31)C2 [Example 97, 1-((1S,3S,5R)-8-Methanesulfonyl-8-aza-bicyclo[3.2.1]oct-3-yl)-1,6-dihydro-1,3,5,6-tetraaza-as-indacene] | 7.70 | 7.53 | 8.45 | 8.63
CC(C)(C)OC(=O)N1CCC[C@@H]1CN[C@H]1CC[C@H](n2cnc3cnc4[nH]ccc4c32)CC1 [Example 556, trans (R)-2-{[4-(6H-1,3,5,6-Tetraaza-as-indacen-1-yl)-cyclohexylamino]-methyl}-pyrrolidine-1-carboxylic acid tert-butyl ester] | 5.83 | 6.05 | 7.22 | 6.72

More lines, in order of rising pKi [1], values ahead:

pKi [1] | pKi [2] | pKi [3] | pKi [4] | Structure (SMILES)
6.37 | 6.62 | 6.98 | 6.92 | Cn1ccnc1CN1CCC[C@@H](n2cnc3cnc4[nH]ccc4c32)C1 [Example 44, 1-[(R)-1-(1-Methyl-1H-imidazol-2-ylmethyl)-piperidin-3-yl]-1,6-dihdyro-1,3,5,6-tetraaza-as-indacene]
6.45 | 7.19 | 6.71 | 6.25 | O=c1ccn(Cc2nc3cnc4[nH]ccc4c3n2C2CCOCC2)c(=O)[nH]1 [Example 470, 1-[1-(Tetrahydro-pyran-4-yl)-1,6-dihydro-1,3,5,6-tetraaza-as-indacen-2-ylmethyl]-1H-pyrimidine-2,4-dione]
6.49 | 7.53 | 7.42 | 7.23 | N#CCCN1CCC(n2c(COCc3ccc(F)c(F)c3)nc3cnc4[nH]ccc4c32)CC1 [Example 835, 3-{4-[2-(3,4-Difluoro-benzyloxymethyl)-6H-1,3,5,6-tetraaza-as-indacen-1-yl]-piperidin-1-yl}-propionitrile]
6.86 | 7.70 | 8.32 | 7.77 | N#CCCN1CCC(n2c(C3CCC3)nc3cnc4[nH]ccc4c32)CC1 [Example 327, 3-[4-(2-Cyclobutyl-6H-1,3,5,6-tetraaza-as-indacen-1-yl)-piperidin-1-yl]-propionitrile]
7.27 | 6.96 | 8.12 | 8.05 | Cn1ncc2c1CC[C@@H](n1cnc3cnc4[nH]ccc4c31)C2 [Example 955, 1-((R)-1-Methyl-4,5,6,7-tetrahydro-1H-indazol-5-yl)-1,6-dihydro-1,3,5,6-tetraaza-as-indacene]
7.30 | 7.71 | 8.60 | 7.98 | COCC(=O)NCc1nc2cnc3[nH]ccc3c2n1C1CCN(CCC#N)CC1 [Example 503, N-{1-[1-(2-Cyano-ethyl)-piperidin-4-yl]-1,6-dihydro-1,3,5,6-tetraaza-as-indacen-2-ylmethyl}-2-methoxy-acetamide]
7.33 | 6.38 | 8.09 | 7.86 | O=S(=O)(C1CCCC1)N1CCC(n2cnc3cnc4[nH]ccc4c32)CC1 [Example 443, 1-(1-Cyclopentanesulfonyl-piperidin-4-yl)-1,6-dihydro-1,3,5,6-tetraaza-as-indacene]
7.35 | 6.69 | 8.14 | 7.47 | Cn1cncc1CN[C@H]1CC[C@H](n2cnc3cnc4[nH]ccc4c32)CC1 [Example 575, trans (3-Methyl-3H-imidazol-4-ylmethyl)-[4-(6H-1,3,5,6-tetraaza-as-indacen-1-yl)-cyclohexyl]-amine]
8.52 | 7.20 | 9.12 | 7.88 | C[C@@H](O)c1nc2cnc3[nH]ccc3c2n1[C@H]1CC[C@H](NCC(F)(F)F)CC1 [Example 614, Trans (R)-1-{1-[4-(2,2,2-trifluoro-ethylamino)-cyclohexyl]-1,6-dihydro-1,2,3,5,6-tetraaza-as-indacen-2-yl}-ethanol]
